According to PMC8815272 (The Journal of Supercritical Fluids, 2022):
Read-outs that look alike come from different tables or passages of the source.

Columns and labels:
[1] = Solubility of favipiravir in supercritical CO2; type: physicochemical
[2] = type: physicochemical; details: binary system favipiravir-SC-CO2, from model
[3] = high permeability, low water solubility; cited from earlier work
[4] = cited from earlier work
[5] = SC-CO2, 15.5–30.5 MPa, 315–345 K

Q: For `NC(=O)c1nc(F)c[nH]c1=O` [Favipiravir], which “y2 × 10^4 (Mole Fraction)” value ([1]; SC-CO2, 308 K, 12 MPa, density 768.42 kg/m^3) is on record?
A: 0.53 mole fraction × 10^4

Q: And the “y2 × 10^4 (Mole Fraction)” value ([1]; SC-CO2, 308 K, 15 MPa, density 816.06 kg/m^3)?
A: 0.87 mole fraction × 10^4

Q: And the “y2 × 10^4 (Mole Fraction)” value ([1]; SC-CO2, 308 K, 18 MPa, density 848.87 kg/m^3)?
A: 1.44 mole fraction × 10^4

Q: What about the “y2 × 10^4 (Mole Fraction)” value ([1]; SC-CO2, 308 K, 21 MPa, density 874.40 kg/m^3) of the same compound?
A: 2.31 mole fraction × 10^4

Q: What about the “y2 × 10^4 (Mole Fraction)” value ([1]; SC-CO2, 308 K, 24 MPa, density 895.54 kg/m^3) of the same compound?
A: 3.42 mole fraction × 10^4

Q: And the “y2 × 10^4 (Mole Fraction)” value ([1]; SC-CO2, 308 K, 27 MPa, density 913.69 kg/m^3)?
A: 4.09 mole fraction × 10^4

Q: What about the “y2 × 10^4 (Mole Fraction)” value ([1]; SC-CO2, 308 K, 30 MPa, density 929.68 kg/m^3) of the same compound?
A: 5.13 mole fraction × 10^4

Q: What about the “y2 × 10^4 (Mole Fraction)” value ([1]; SC-CO2, 318 K, 12 MPa, density 659.73 kg/m^3) of the same compound?
A: 0.37 mole fraction × 10^4

Q: And the “y2 × 10^4 (Mole Fraction)” value ([1]; SC-CO2, 318 K, 15 MPa, density 743.17 kg/m^3)?
A: 0.80 mole fraction × 10^4

Q: What about the “y2 × 10^4 (Mole Fraction)” value ([1]; SC-CO2, 318 K, 18 MPa, density 790.18 kg/m^3) of the same compound?
A: 1.30 mole fraction × 10^4

Q: What about the “y2 × 10^4 (Mole Fraction)” value ([1]; SC-CO2, 318 K, 21 MPa, density 823.70 kg/m^3) of the same compound?
A: 2.72 mole fraction × 10^4

Q: And the “y2 × 10^4 (Mole Fraction)” value ([1]; SC-CO2, 318 K, 24 MPa, density 850.10 kg/m^3)?
A: 4.29 mole fraction × 10^4

Q: What about the “y2 × 10^4 (Mole Fraction)” value ([1]; SC-CO2, 318 K, 27 MPa, density 872.04 kg/m^3) of the same compound?
A: 5.41 mole fraction × 10^4

Q: What about the “y2 × 10^4 (Mole Fraction)” value ([1]; SC-CO2, 318 K, 30 MPa, density 890.92 kg/m^3) of the same compound?
A: 6.48 mole fraction × 10^4

Q: And the “y2 × 10^4 (Mole Fraction)” value ([1]; SC-CO2, 328 K, 12 MPa, density 506.85 kg/m^3)?
A: 0.08 mole fraction × 10^4

Q: And the “y2 × 10^4 (Mole Fraction)” value ([1]; SC-CO2, 328 K, 15 MPa, density 654.94 kg/m^3)?
A: 0.60 mole fraction × 10^4

Q: And the “y2 × 10^4 (Mole Fraction)” value ([1]; SC-CO2, 328 K, 18 MPa, density 724.13 kg/m^3)?
A: 1.39 mole fraction × 10^4

Q: What about the “y2 × 10^4 (Mole Fraction)” value ([1]; SC-CO2, 328 K, 21 MPa, density 768.74 kg/m^3) of the same compound?
A: 3.21 mole fraction × 10^4

Q: And the “y2 × 10^4 (Mole Fraction)” value ([1]; SC-CO2, 328 K, 24 MPa, density 801.92 kg/m^3)?
A: 4.75 mole fraction × 10^4

Q: What about the “y2 × 10^4 (Mole Fraction)” value ([1]; SC-CO2, 328 K, 27 MPa, density 828.51 kg/m^3) of the same compound?
A: 6.58 mole fraction × 10^4

Q: What about the “y2 × 10^4 (Mole Fraction)” value ([1]; SC-CO2, 328 K, 30 MPa, density 850.83 kg/m^3) of the same compound?
A: 7.65 mole fraction × 10^4

Q: What about the “y2 × 10^4 (Mole Fraction)” value ([1]; SC-CO2, 338 K, 12 MPa, density 384.17 kg/m^3) of the same compound?
A: 0.03 mole fraction × 10^4

Q: What about the “y2 × 10^4 (Mole Fraction)” value ([1]; SC-CO2, 338 K, 15 MPa, density 555.23 kg/m^3) of the same compound?
A: 0.37 mole fraction × 10^4

Q: What about the “y2 × 10^4 (Mole Fraction)” value ([1]; SC-CO2, 338 K, 18 MPa, density 651.18 kg/m^3) of the same compound?
A: 1.32 mole fraction × 10^4

Q: What about the “y2 × 10^4 (Mole Fraction)” value ([1]; SC-CO2, 338 K, 21 MPa, density 709.69 kg/m^3) of the same compound?
A: 3.92 mole fraction × 10^4

Q: And the “y2 × 10^4 (Mole Fraction)” value ([1]; SC-CO2, 338 K, 24 MPa, density 751.17 kg/m^3)?
A: 5.6 mole fraction × 10^4

Q: What about the “y2 × 10^4 (Mole Fraction)” value ([1]; SC-CO2, 338 K, 27 MPa, density 783.29 kg/m^3) of the same compound?
A: 7.57 mole fraction × 10^4

Q: What about the “y2 × 10^4 (Mole Fraction)” value ([1]; SC-CO2, 338 K, 30 MPa, density 809.58 kg/m^3) of the same compound?
A: 9.05 mole fraction × 10^4

Q: And the “total heat (ΔHtotal)” value [2]?
A: 16.75 kcal/mol

Q: What about the “vaporization heat (ΔHvap)” value [2] of the same compound?
A: 21.54 kcal/mol

Q: And the “class in the Biopharmaceutics Classification System (BCS)” value [3]?
A: class II

Q: For `CC[C@H](C)C(=O)O[C@H]1C[C@@H](C)C=C2C=C[C@H](C)[C@H](CC[C@@H]3C[C@@H](O)CC(=O)O3)[C@H]21` [Lovastatin], which “Crossover (MPa)” value ([4]; SC-CO2, 12.16–35.46 MPa, 308–348 K) is on record?
A: 17 MPa

Q: Which results are given for `CCC(=O)O[C@]1(C(=O)CCl)[C@@H](C)C[C@H]2[C@@H]3CCC4=CC(=O)C=C[C@]4(C)[C@@]3(F)[C@@H](O)C[C@@]21C` [Clobetasol Propionate]?
A: Crossover (MPa) [4, 5]: 24.5 MPa; Mole fraction (y) [4, 5]: 1 × 10^−6 to 2.1 × 10^−5

Q: Which results are given for `CC(C(=O)O)c1cccc(Oc2ccccc2)c1` (stereo not drawn) [Fenoprofen]?
A: Crossover (MPa) ([4]; SC-CO2, 12–40 MPa, 308–338 K): 16 MPa; Mole fraction (y) ([4]; SC-CO2, 12–40 MPa, 308–338 K): 2.01 × 10^−5 to 4.20 × 10^−3
